# Experimental data reported in patent US20020156010A1 (priority 2000, published 2002).
# Assays:
# [1] = Fasting leptin and IGF-1 (RIA), octreotide-LAR 24 weeks; format: in vivo, human; details: Week 24-Week 0; High Responders (n = 8)
# [2] = system: early phase of insulin secretion; details: dose-dependent; cited from earlier work
# [3] = children with obesity secondary to cranial insult and insulin hypersecretion; cited from earlier work
# [4] = long-term usage, acromegaly or other disorders; cited from earlier work
# [5] = biological target: somatostatin receptor-5 (SSTR5) (Homo sapiens, UniProt P35346); details: on the β-cell; cited from earlier work
# Chain of somatostatin receptor-5 (SSTR5) (P35346 whole entry, species assumed): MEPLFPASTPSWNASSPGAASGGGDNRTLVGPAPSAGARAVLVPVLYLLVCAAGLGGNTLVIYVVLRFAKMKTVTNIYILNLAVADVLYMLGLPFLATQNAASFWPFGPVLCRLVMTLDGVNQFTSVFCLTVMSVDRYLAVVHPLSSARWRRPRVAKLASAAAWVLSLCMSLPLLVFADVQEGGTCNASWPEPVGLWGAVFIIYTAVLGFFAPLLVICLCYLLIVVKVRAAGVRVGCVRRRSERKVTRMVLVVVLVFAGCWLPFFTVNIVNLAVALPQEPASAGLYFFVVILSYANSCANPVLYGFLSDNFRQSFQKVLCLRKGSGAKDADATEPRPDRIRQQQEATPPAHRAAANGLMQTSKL
# [6] = Safety: blood pressure, glucose (FBG, CBG, HbA1c, IGT), TSH, free T4, lipids, adverse events, octreotide-LAR 24 weeks
# Description: Inclusion criteria were ages 18-65 years and body mass index (BMI)≧35. The screening evaluation included a complete history and physical examination, and the following studies: Comprehensive Metabolic Panel (CMP), serum glucose 2 hours after an 75 gm oral glucose load, gallbladder ultrasound, and urine pregnancy test (if female). Exclusion criteria included gallstones, hypertension, diabetes mellitus (by ADA criteria), renal or liver disease, or use of chronic medications except for thyroid or estrogen supplementation. Subjects were evaluated every four weeks for 24 weeks. […]
# Chemical Analyses: Serum glucose during OGTT was measured by the glucose oxidase method (Kadish, et al., “A new and rapid method for the determination of glucose by measurement of rate of oxygen consumption,” Clin Chem, 14:116-119 (1968), which is hereby incorporated by reference in its entirety). Serum immunoreactive insulin (μU/ml) and C-peptide (ng/ml) levels from each OGTT sample were measured by standard double-antibody radioimmunoassay (RIA) (Linco Research; St Louis, Mo.). Leptin was measured by double antibody RIA, and IGF-1 by competitive binding RIA (Endocrine Sciences; Calabasas Hills, Calif.). […]
substance,measurement,setting,value
D-phenylalanyl-L-cysteinyl-L-phenylalanyl-D-tryptophyl-L-lysyl-L-threonyl-N-[2-hydroxy-1(hydroxymethyl)propyl]-L-cysteinamide cyclic (2=>7)-disulfide [octreotide],Δ IGF-1,[1],least suppression
same,Early phase of insulin secretion,[2],inhibit
same,Weight,[3],promotes weight loss
same,Weight and fat mass,[4],minimal positive effect
same,Binding to somatostatin receptor-5 (SSTR5),[5],binds
same,HR subjects demonstrating IGT,[6]; at Week 0 and at Week 24,none
same,Percent of subjects with IGT,[6]; end of the study (32% before treatment),73%
